Measurements taken from patent US9499550B2 (BRISTOL-MYERS SQUIBB COMPANY, priority 2012, dated 2016).
Where two headings read alike, the source gives them in different places.

Assays:
[1] = system: HCV genotype 1b (Con1) replicon in HUH-7 cells; experiment: HCV replicon luciferase reporter assay, genotype 1b; assay type: cell-based; conditions: 3 days incubation
In short: (§1)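 Replicon inhibition for both genotypes was measured as Renilla luciferase signal (EnduRen, 7.5 μM final, 2 h) after 3-day, 37° C exposure of replicon-bearing HUH-7 cells in 4% FCS DMEM, 0.5% DMSO. The 1b construct carries S1179I; the 1a H77 construct carries P1496L and S2204I. Twenty-point, 3-fold dilutions were fitted four-parametrically for EC50, and CC50 was taken from multiplexed Cell Titer-Blue.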

[2] = system: HCV genotype 1a (H77 strain) replicon in HUH-7 cells; experiment: HCV replicon luciferase reporter assay, genotype 1a; assay type: cell-based; conditions: 3 days incubation
In short: as §1

[3] = Hepatitis C virus, Huh-7, 72 h, HCV genotype 1b replicon luciferase, read-out: LE_1b (EC50, range)
[4] = Hepatitis C virus, Huh-7, 72 h, HCV genotype 1a replicon luciferase, read-out: LE_1a (EC50, range)
[5] = Hepatitis C virus, Huh-7, 72 h, HCV genotype 1b replicon luciferase assay, range class, read-out: LE_1b (EC50, range)
[6] = Hepatitis C virus, Huh-7, 72 h, HCV genotype 1a replicon luciferase assay, range class, read-out: LE_1a (EC50, range)
[7] = Hepatitis C virus, Huh-7, 72 h, HCV genotype 1b replicon luciferase, read-out: LE_1b (EC50)
[8] = Hepatitis C virus, Huh-7, 72 h, HCV genotype 1a replicon luciferase, read-out: LE_1a (EC50)

Structure (SMILES)	EC50 [1, 3]	EC50 [2, 4]	EC50 [1, 5]	EC50 [2, 6]	other results
CCOc1cc2ccnc(O[C@@H]3C[C@H]4C(=O)N[C@]5(C(=O)NS(=O)(=O)C6(C)CC6)C[C@H]5/C=C\CC[C@@H](C)C[C@@H](C)[C@H](NC(=O)OC(C)(C)C(F)(F)F)C(=O)N4C3)c2cc1F [Compound 5395, 1,1,1-trifluoro-2-methylpropan-2-yl((2R,6S,7R,9R,13aS,14aR,16aS,Z)-2-((6-ethoxy-7-fluoroisoquinolin-1-yl)oxy)-7,9-dimethyl-14a-(((1-methylcyclopropyl)sulfonyl)carbamoyl)-5,16-dioxo-1,2,3,5,6,7,8,9,10,11,13a,14,14a,15,16,16a-hexadecahydrocyclopropa[e]pyrrolo[1,2-a][1,4]diazacyclopentadecin-6-yl)carbamate]	0.51 to 1 nM	1.01 to 5 nM			
COc1ccc2c(O[C@@H]3C[C@H]4C(=O)N[C@]5(C(=O)NS(=O)(=O)C6(C)CC6)C[C@H]5/C=C\CC[C@@H](C)C[C@@H](C)[C@H](NC(=O)OC(C)(C)C(F)(F)F)C(=O)N4C3)nc(N3CCOCC3)cc2c1 [Compound 3095, 1,1,1-trifluoro-2-methylpropan-2-yl((2R,6S,7R,9R,13aS,14aR,16aS,Z)-2-((6-methoxy-3-morpholinoisoquinolin-1-yl)oxy)-7,9-dimethyl-14a-(((1-methylcyclopropyl)sulfonyl)carbamoyl)-5,16-dioxo-1,2,3,5,6,7,8,9,10,11,13a,14,14a,15,16,16a-hexadecahydrocyclopropa[e]pyrrolo[1,2-a][1,4]diazacyclopentadecin-6-yl)carbamate]			< 5.46 nM	< 5.46 nM	
C[C@@H]1CC/C=C\[C@@H]2C[C@@]2(C(=O)NS(=O)(=O)C2(CF)CC2)NC(=O)[C@@H]2C[C@@H](Oc3nc4c(c5ccccc35)OCCC4)CN2C(=O)[C@@H](NC(=O)OC(C)(C)C(C)(F)F)[C@H](C)C1 [Compound 6040, 3,3-difluoro-2-methylbutan-2-yl((2R,6S,7R,9R,13aS,14aR,16aS,Z)-2-((3,4-dihydro-2H-pyrano[3,2-c]isoquinolin-6-yl)oxy)-14a-(((1-(fluoromethyl)cyclopropyl)sulfonyl)carbamoyl)-7,9-dimethyl-5,16-dioxo-1,2,3,5,6,7,8,9,10,11,13a,14,14a,15,16,16a-hexadecahydrocyclopropa[e]pyrrolo[1,2-a][1,4]diazacyclopentadecin-6-yl)carbamate]					EC50 ([1]; HCV genotype 1b replicon luciferase, read-out: LE_1b (EC50, range)): 0.51 to 1 nM; EC50 ([2]; HCV genotype 1a replicon luciferase, read-out: LE_1a (EC50, range)): 1.01 to 5 nM
COc1ccc2c(O[C@@H]3C[C@H]4C(=O)N[C@]5(C(=O)NS(=O)(=O)C6(C)CC6)C[C@H]5/C=C\CC[C@@H](C)C[C@@H](C)[C@H](NC(=O)OC(C)(C)C(F)(F)F)C(=O)N4C3)nc(N3CCCC3)cc2c1 [Compound 3119, 1,1,1-trifluoro-2-methylpropan-2-yl((2R,6S,7R,9R,13aS,14aR,16aS,Z)-2-((6-methoxy-3-(pyrrolidin-1-yl)isoquinolin-1-yl)oxy)-7,9-dimethyl-14a-(((1-methylcyclopropyl)sulfonyl)carbamoyl)-5,16-dioxo-1,2,3,5,6,7,8,9,10,11,13a,14,14a,15,16,16a-hexadecahydrocyclopropa[e]pyrrolo[1,2-a][1,4]diazacyclopentadecin-6-yl)carbamate]			< 5.46 nM	< 5.46 nM	
COc1cnc(O[C@@H]2C[C@H]3C(=O)N[C@]4(C(=O)NS(=O)(=O)C5(CF)CC5)C[C@H]4/C=C\CC[C@H](C)C[C@@H](C)[C@H](NC(=O)OC4(C(C)C)COC4)C(=O)N3C2)c2ccccc12 [Compound 1053, 3-isopropyloxetan-3-yl ((2R,6S,7R,9S,13aS,14aR,16aS,Z)-14a-(((1-(fluoromethyl)cyclopropyl)sulfonyl)carbamoyl)-2-((4-methoxyisoquinolin-1-yl)oxy)-7,9-dimethyl-5,16-dioxo-1,2,3,5,6,7,8,9,10,11,13a,14,14a,15,16,16a-hexadecahydrocyclopropa[e]pyrrolo[1,2-a][1,4]diazacyclopentadecin-6-yl)carbamate]			4.82 to 103 nM	4.82 to 103 nM	
COc1ccc2c(O[C@@H]3C[C@H]4C(=O)N[C@]5(C(=O)NS(=O)(=O)C6CC6)C[C@H]5/C=C\CC[C@H](C)C[C@@H](C)[C@H](NC(=O)O[C@H](C)C(F)(F)F)C(=O)N4C3)nc(N3CCOCC3)cc2c1 [Compound 3102, (R)-1,1,1-trifluoropropan-2-yl ((2R,6S,7R,9S,13aS,14aR,16aS,Z)-14a-((cyclopropylsulfonyl)carbamoyl)-2-((6-methoxy-3-morpholinoisoquinolin-1-yl)oxy)-7,9-dimethyl-5,16-dioxo-1,2,3,5,6,7,8,9,10,11,13a,14,14a,15,16,16a-hexadecahydrocyclopropa[e]pyrrolo[1,2-a][1,4]diazacyclopentadecin-6-yl)carbamate]			< 5.46 nM	4.82 to 103 nM	
COc1cc2ccccc2c(O[C@@H]2C[C@H]3C(=O)N[C@]4(C(=O)NS(=O)(=O)C5(C)CC5)C[C@H]4/C=C\CC[C@@H](C)C[C@@H](C)[C@H](NC(=O)OC(C)(C)C(F)(F)F)C(=O)N3C2)n1 [Compound 6015, 1,1,1-trifluoro-2-methylpropan-2-yl((2R,6S,7R,9R,13aS,14aR,16aS,Z)-2-((3-methoxyisoquinolin-1-yl)oxy)-7,9-dimethyl-14a-(((1-methylcyclopropyl)sulfonyl)carbamoyl)-5,16-dioxo-1,2,3,5,6,7,8,9,10,11,13a,14,14a,15,16,16a-hexadecahydrocyclopropa[e]pyrrolo[1,2-a][1,4]diazacyclopentadecin-6-yl)carbamate]	< 5.46 nM	< 5.46 nM			EC50 [1, 7]: 0.24 nM; EC50 [2, 8]: 1.19 nM
CCN(C)c1cc2cc(OC)ccc2c(O[C@@H]2C[C@H]3C(=O)N[C@]4(C(=O)NS(=O)(=O)C5(CF)CC5)C[C@H]4/C=C\CC[C@H](C)C[C@@H](C)[C@H](NC(=O)OC(C)(C)C(F)(F)F)C(=O)N3C2)n1 [Compound 1136, 1,1,1-trifluoro-2-methylpropan-2-yl((2R,6S,7R,9S,13aS,14aR,16aS,Z)-2-((3-(ethyl(methyl)amino)-6-methoxyisoquinolin-1-yl)oxy)-14a-(((1-(fluoromethyl)cyclopropyl)sulfonyl)carbamoyl)-7,9-dimethyl-5,16-dioxo-1,2,3,5,6,7,8,9,10,11,13a,14,14a,15,16,16a-hexadecahydrocyclopropa[e]pyrrolo[1,2-a][1,4]diazacyclopentadecin-6-yl)carbamate]			> 87.4 nM	> 87.4 nM	
C[C@H]1CC/C=C\[C@@H]2C[C@@]2(C(=O)NS(=O)(=O)C2CC2)NC(=O)[C@@H]2C[C@@H](Oc3nccc4c5c(ccc34)OC(F)(F)O5)CN2C(=O)[C@@H](NC(=O)OC(C)(C)C)[C@H](C)C1 [Compound 5256, tert-butyl ((2R,6S,7R,9S,13aS,14aR,16aS,Z)-14a-((cyclopropylsulfonyl)carbamoyl)-2-((2,2-difluoro-[1,3]dioxolo[4,5-f]isoquinolin-6-yl)oxy)-7,9-dimethyl-5,16-dioxo-1,2,3,5,6,7,8,9,10,11,13a,14,14a,15,16,16a-hexadecahydrocyclopropa[e]pyrrolo[1,2-a][1,4]diazacyclopentadecin-6-yl)carbamate]	4.82 to 103 nM	4.82 to 103 nM			EC50 [1, 7]: 12.9 nM; EC50 [2, 8]: 20.9 nM
COc1ccc2ncc(O[C@@H]3C[C@H]4C(=O)N[C@]5(C(=O)NS(=O)(=O)C6(CF)CC6)C[C@H]5/C=C\CC[C@@H](C)C[C@@H](C)[C@H](NCC(F)F)C(=O)N4C3)nc2c1 [Compound 4170]	4.82 to 103 nM	> 87.4 nM			
COc1nnc(O[C@@H]2C[C@H]3C(=O)N[C@]4(C(=O)NS(=O)(=O)C5(CF)CC5)C[C@H]4/C=C\CC[C@@H](C)C[C@@H](C)[C@H](NC(=O)OC(C)(C)C(F)(F)F)C(=O)N3C2)c2ccccc12 [Compound 5027]					EC50 ([1]; Hepatitis C virus, GETYPE1B, Huh-7, 72 h, HCV genotype 1b replicon luciferase, read-out: LE_1b (EC50, range)): < 5.46 nM; EC50 ([2]; Hepatitis C virus, GETYPE1A, Huh-7, 72 h, HCV genotype 1a replicon luciferase, read-out: LE_1a (EC50, range)): < 5.46 nM
COc1ccc2c(O[C@@H]3C[C@H]4C(=O)N[C@]5(C(=O)NS(=O)(=O)C6(C)CC6)C[C@H]5/C=C\CC[C@@H](C)C[C@@H](C)[C@H](NC(=O)OC(C)(C)C(F)(F)F)C(=O)N4C3)nc(-c3ccc(OC(C)C)cc3)c(OC)c2c1 [Compound 5348, 1,1,1-trifluoro-2-methylpropan-2-yl((2R,6S,7R,9R,13aS,14aR,16aS,Z)-2-((3-(4-isopropoxyphenyl)-4,6-dimethoxyisoquinolin-1-yl)oxy)-7,9-dimethyl-14a-(((1-methylcyclopropyl)sulfonyl)carbamoyl)-5,16-dioxo-1,2,3,5,6,7,8,9,10,11,13a,14,14a,15,16,16a-hexadecahydrocyclopropa[e]pyrrolo[1,2-a][1,4]diazacyclopentadecin-6-yl)carbamate]	< 5.46 nM	< 5.46 nM			
CC[C@@H]1C[C@@H](C)CC/C=C\[C@@H]2C[C@@]2(C(=O)NS(=O)(=O)C2CC2)NC(=O)[C@@H]2C[C@@H](Oc3nccc4c5c(ccc34)N(C)CCO5)CN2C(=O)[C@H]1NC(=O)C(=O)N(C)C [Compound 5317, N1-((2R,6S,7R,9S,13aS,14aR,16aS,Z)-14a-((cyclopropylsulfonyl)carbamoyl)-7-ethyl-9-methyl-2-((4-methyl-3,4-dihydro-2H-[1,4]oxazino[2,3-f]isoquinolin-7-yl)oxy)-5,16-dioxo-1,2,3,5,6,7,8,9,10,11,13a,14,14a,15,16,16a-hexadecahydrocyclopropa[e]pyrrolo[1,2-a][1,4]diazacyclopentadecin-6-yl)-N2,N2-dimethyloxalamide]	4.82 to 103 nM	4.82 to 103 nM			
